Measurements reported in publication doi:10.1101/2020.07.07.192294v1 (biorxiv, 2020).
Where two headings read alike, the source gives them in different places.

Columns and labels:
CYP125 = target: T1, CYP125 (Mycobacterium tuberculosis, UniProt P9WPP1); assay: biochemical
T1 sequence (P9WPP1 1-433): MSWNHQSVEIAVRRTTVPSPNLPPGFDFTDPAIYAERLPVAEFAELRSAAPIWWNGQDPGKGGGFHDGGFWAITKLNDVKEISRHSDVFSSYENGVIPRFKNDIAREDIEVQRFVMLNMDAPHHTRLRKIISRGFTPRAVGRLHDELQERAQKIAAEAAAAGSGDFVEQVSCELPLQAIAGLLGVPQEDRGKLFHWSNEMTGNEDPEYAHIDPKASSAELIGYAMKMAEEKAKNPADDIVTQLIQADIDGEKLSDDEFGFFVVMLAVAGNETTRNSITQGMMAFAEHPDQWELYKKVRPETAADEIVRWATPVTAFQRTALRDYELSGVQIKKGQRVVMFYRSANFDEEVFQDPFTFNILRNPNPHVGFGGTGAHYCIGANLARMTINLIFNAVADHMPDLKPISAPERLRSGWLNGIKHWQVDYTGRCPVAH

CYP124 = target: T2, CYP124 (Mycobacterium tuberculosis, UniProt P9WPP3); assay: biochemical
T2 sequence (P9WPP3 1-428): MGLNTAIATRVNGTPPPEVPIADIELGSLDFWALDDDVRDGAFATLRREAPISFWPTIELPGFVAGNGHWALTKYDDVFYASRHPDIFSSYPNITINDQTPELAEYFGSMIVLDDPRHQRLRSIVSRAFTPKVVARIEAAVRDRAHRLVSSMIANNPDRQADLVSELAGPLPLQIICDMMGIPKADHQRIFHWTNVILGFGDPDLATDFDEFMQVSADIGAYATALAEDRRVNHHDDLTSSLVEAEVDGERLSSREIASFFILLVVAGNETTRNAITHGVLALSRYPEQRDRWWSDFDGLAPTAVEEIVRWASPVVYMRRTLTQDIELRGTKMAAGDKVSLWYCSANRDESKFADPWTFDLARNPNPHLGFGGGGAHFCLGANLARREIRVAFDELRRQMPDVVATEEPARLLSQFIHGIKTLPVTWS

CYP142 (Rv3518c) [1] = target: T3, CYP142 (Rv3518c) (Mycobacterium tuberculosis, UniProt P9WPL5); assay: biochemical
CYP142 (Rv3518c) [2] = target: T4, CYP142 (Rv3518c) (Mycobacterium tuberculosis, UniProt P9WPL5); assay: biochemical; type: binding
T4 sequence (P9WPL5 1-398): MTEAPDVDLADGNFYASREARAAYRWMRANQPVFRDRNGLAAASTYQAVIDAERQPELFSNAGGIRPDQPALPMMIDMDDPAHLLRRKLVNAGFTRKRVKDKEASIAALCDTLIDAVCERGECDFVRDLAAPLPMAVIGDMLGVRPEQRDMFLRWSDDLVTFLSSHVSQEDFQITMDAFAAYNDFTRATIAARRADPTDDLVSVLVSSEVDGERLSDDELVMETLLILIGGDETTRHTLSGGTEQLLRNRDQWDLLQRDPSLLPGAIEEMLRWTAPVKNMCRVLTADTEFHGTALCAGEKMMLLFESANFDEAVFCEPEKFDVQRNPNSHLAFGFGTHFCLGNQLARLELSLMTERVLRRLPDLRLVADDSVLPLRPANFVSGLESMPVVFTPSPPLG

CYP142 (Rv3518c) [3] = target: T3, CYP142 (Rv3518c); settings: read-out: Kdapp ± SE (μM) / CYP142; binder

SMILES | Kd (CYP125) | Kd (CYP124) | Kd (CYP142 (Rv3518c) [1]) | Kd (CYP142 (Rv3518c) [2]) | Kd (CYP125; read-out: Kdapp ± SE (μM) / CYP125, binder) | Kd (CYP124; read-out: Kdapp ± SE (μM) / CYP124, binder) | Kd (CYP142 (Rv3518c) [3])
CC(C)CCC[C@@H](C)[C@H]1CC[C@H]2[C@@H]3C(=O)C=C4C[C@@H](O)CC[C@]4(C)[C@H]3CC[C@]12C [7ketoC] | 12.4 ± 1.7 µM | 6.5 ± 0.8 µM | 4.3 ± 0.8 µM |  |  |  | 
Cc1cc(CCC(C)C)ccc1NC=NO [cpd5', N′-hydroxy-N-(4-isopentyl-2-methylphenyl)formimidamide] | 16 ± 5 µM | 1.93 ± 0.16 µM |  | 0.17 ± 0.06 µM |  |  | 
CCOC(=O)CCCCCCn1ccnc1 [CHImi] | 31 ± 4 µM | 1.45 ± 0.08 µM |  | 3.73 ± 0.19 µM |  |  | 
CC(C)CCC[C@@H](C)[C@H]1CC[C@H]2[C@@H]3CCC4=CC(=O)CC[C@]4(C)[C@H]3CC[C@]12C [Cholestenone] | 10.8 ± 1.8 µM | 3.4 ± 0.6 µM |  |  |  |  | 
CC(C)CCC[C@@H](C)[C@H]1CC[C@H]2[C@@H]3[C@@H](O)C=C4C[C@@H](O)CC[C@]4(C)[C@H]3CC[C@]12C [7βOHC] | 13 ± 2 µM | 11.1 ± 1.3 µM | 6 ± 1.4 µM |  |  |  | 
O=C(O)CCCCCCCn1ccnc1 [ChpImi] | 1.61 ± 0.03 µM | 3.1 ± 0.5 µM |  | 31 ± 3 µM |  |  | 
CC(C)CCC[C@@H](C)[C@H]1CC[C@H]2[C@@H]3[C@@H](O)CC4=CC(=O)CC[C@]4(C)[C@H]3CC[C@]12C [7βOHC-one] |  |  |  |  | 26 ± 3 µM | 13.2 ± 1.7 µM | 27 ± 8 µM
